Patent US10392391B2 (Vertex Pharmaceuticals Incorporated, priority 2012, dated 2019)

Biological target: ATR kinase (full-length ATR) (Homo sapiens (Human), UniProt Q13535)
Assay: ATR inhibition assay (radioactive-phosphate incorporation)
Format: biochemical
Conditions: not given
Outline: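 Ki(app) was fitted by non-linear regression to background-corrected initial rates. Full-length ATR (5 nM) phosphorylated 800 μM peptide using 10 μM [γ-33P]ATP at 25° C in Tris/HCl pH 7.5 buffer with MgCl2, DTT and 7% DMSO. After 10-minute compound pre-incubation and 24-hour reaction, phosphocellulose filters were scintillation counted.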

Sequence of ATR kinase (full-length ATR) (Q13535 whole entry): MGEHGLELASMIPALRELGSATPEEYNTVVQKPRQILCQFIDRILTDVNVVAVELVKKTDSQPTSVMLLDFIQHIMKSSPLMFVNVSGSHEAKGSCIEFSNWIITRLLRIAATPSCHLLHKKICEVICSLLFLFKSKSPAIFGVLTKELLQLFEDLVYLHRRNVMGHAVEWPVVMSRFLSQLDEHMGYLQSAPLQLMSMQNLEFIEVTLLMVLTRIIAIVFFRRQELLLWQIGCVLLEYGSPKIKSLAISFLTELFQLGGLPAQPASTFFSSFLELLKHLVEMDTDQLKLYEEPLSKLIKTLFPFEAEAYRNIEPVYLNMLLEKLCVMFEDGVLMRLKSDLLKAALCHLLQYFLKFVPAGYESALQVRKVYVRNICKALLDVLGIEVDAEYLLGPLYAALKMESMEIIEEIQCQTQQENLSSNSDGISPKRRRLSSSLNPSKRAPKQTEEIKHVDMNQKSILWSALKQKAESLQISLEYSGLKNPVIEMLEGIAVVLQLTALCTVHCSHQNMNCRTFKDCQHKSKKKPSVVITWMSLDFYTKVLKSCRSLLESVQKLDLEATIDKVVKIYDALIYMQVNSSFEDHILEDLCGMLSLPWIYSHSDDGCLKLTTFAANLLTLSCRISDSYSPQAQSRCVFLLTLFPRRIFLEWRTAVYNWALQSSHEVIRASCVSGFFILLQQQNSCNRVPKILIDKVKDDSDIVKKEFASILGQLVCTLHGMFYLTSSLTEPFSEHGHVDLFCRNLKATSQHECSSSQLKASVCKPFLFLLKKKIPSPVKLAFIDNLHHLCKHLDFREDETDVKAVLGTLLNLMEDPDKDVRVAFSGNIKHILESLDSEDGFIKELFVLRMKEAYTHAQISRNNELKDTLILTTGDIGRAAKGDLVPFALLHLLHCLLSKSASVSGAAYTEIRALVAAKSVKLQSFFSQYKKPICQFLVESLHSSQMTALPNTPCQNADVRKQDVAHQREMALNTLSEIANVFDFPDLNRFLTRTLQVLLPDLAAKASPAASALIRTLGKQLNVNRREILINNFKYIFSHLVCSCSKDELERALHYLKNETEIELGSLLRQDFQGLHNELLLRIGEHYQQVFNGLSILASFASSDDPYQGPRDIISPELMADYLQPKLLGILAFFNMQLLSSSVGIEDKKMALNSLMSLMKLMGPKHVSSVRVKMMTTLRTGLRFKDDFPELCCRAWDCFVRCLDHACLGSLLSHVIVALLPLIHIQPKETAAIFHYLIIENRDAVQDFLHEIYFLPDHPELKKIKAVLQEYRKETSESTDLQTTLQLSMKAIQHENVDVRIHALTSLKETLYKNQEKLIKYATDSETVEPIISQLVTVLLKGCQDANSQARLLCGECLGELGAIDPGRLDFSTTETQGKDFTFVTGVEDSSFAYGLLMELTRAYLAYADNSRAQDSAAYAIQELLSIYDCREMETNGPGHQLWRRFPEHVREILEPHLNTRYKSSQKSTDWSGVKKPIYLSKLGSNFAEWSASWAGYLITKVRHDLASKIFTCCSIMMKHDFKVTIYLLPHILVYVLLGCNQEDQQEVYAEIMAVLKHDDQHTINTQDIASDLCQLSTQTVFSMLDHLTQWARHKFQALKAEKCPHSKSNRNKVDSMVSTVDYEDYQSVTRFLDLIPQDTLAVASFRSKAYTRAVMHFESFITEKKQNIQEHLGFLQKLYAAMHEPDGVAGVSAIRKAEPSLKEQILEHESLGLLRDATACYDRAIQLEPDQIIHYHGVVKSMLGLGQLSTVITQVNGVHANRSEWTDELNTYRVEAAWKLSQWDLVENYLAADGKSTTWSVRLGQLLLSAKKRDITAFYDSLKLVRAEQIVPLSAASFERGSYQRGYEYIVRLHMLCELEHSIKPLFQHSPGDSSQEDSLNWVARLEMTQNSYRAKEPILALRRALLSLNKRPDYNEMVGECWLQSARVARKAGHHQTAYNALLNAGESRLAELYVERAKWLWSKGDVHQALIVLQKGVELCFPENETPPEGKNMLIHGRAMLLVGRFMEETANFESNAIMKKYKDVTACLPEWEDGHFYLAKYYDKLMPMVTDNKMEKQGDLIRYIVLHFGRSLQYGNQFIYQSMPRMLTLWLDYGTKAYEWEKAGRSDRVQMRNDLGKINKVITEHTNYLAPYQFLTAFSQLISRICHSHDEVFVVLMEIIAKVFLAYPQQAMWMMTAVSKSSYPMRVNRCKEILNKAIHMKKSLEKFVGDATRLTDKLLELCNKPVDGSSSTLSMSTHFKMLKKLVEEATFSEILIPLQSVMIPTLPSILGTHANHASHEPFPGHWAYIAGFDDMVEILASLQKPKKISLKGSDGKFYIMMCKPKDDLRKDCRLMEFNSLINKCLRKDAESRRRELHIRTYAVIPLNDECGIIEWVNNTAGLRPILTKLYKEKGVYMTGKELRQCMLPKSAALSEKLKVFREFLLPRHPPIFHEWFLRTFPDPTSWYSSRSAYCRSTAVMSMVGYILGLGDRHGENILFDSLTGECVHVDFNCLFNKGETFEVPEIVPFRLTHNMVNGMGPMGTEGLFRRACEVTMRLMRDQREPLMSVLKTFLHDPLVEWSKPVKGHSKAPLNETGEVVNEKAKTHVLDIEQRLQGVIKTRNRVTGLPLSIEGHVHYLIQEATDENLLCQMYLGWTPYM

Compound	Ki [nM]
CN1CC[C@@H](OC2CCN(c3ccncc3NC(=O)c3c(N)nn4cc(F)cnc34)CC2)C1 [I-N-131]	10 to 1000

Same assay, conditions: Ki(app), 5 nM full-length ATR, 10 μM ATP, 25° C.

Compound	Ki [nM]
CN1C2CCC1CN(C(=O)C1CCN(c3c(F)cncc3NC(=O)c3c(N)nn4cc(F)cnc34)CC1)C2 [I-G-52, 2-amino-6-fluoro-N-(5-fluoro-4-(4-(8-methyl-3,8-diazabicyclo[3.2.1]octane-3-carbonyl)piperidin-1-yl)pyridin-3-yl)pyrazolo[1,5-a]pyrimidine-3-carboxamide]	10 to 1000
CO[C@H]1CCN(C(=O)C2CCN(c3c(F)cncc3NC(=O)c3c(N)nn4cc(F)cnc34)CC2)C1 [I-G-99, (S)-2-amino-6-fluoro-N-(5-fluoro-4-(4-(3-methoxypyrrolidine-1-carbonyl)piperidin-1-yl)pyridin-3-yl)pyrazolo[1,5-a]pyrimidine-3-carboxamide]	10 to 1000
Nc1nn2cc(F)cnc2c1C(=O)Nc1cnccc1N1CCC(C(=O)N2CCCC2)CC1 [I-G-83, 2-amino-6-fluoro-N-(4-(4-(pyrrolidine-1-carbonyl)piperidin-1-yl)pyridin-3-yl)pyrazolo[1,5-a]pyrimidine-3-carboxamide]	10 to 1000
CNc1cc(N2CCN(C)CC2)c(NC(=O)c2c(N)nn3cc(F)cnc23)cn1 [I-N-129, 2-amino-6-fluoro-N-(6-(methylamino)-4-(4-methylpiperazin-1-yl)pyridin-3-yl)pyrazolo[1,5-a]pyrimidine-3-carboxamide]	10 to 1000
COCCN1CCC[C@H](Oc2ccncc2NC(=O)c2c(N)nn3cc(Cl)cnc23)C1 [I-O-67, (S)-2-amino-6-chloro-N-(4-((1-(2-methoxyethyl)piperidin-3-yl)oxy)pyridin-3-yl)pyrazolo[1,5-a]pyrimidine-3-carboxamide]	10 to 1000
CN(C)C1CCN(C2CCN(c3ccncc3NC(=O)c3c(N)nn4cc(Cl)cnc34)CC2)C1 (centres unmarked) [I-N-106, 2-amino-6-chloro-N-(4-(4-(3-(dimethylamino)pyrrolidin-1-yl)piperidin-1-yl)pyridin-3-yl)pyrazolo[1,5-a]pyrimidine-3-carboxamide]	10 to 1000
CN(C)C(=O)C1CCN(c2ccncc2NC(=O)c2c(N)nn3cc(F)cnc23)CC1 [I-G-2, 2-amino-N-(4-(4-(dimethylcarbamoyl)piperidin-1-yl)pyridin-3-yl)-6-fluoropyrazolo[1,5-a]pyrimidine-3-carboxamide]	10 to 1000
CN1CCN(CC2CCN(c3c(F)cncc3NC(=O)c3c(N)nn4cc(F)cnc34)CC2)C(=O)C1 [I-N-193, 2-amino-6-fluoro-N-(5-fluoro-4-(4-((4-methyl-2-oxopiperazin-1-yl)methyl)piperidin-1-yl)pyridin-3-yl)pyrazolo[1,5-a]pyrimidine-3-carboxamide]	10 to 1000
CC(C#N)c1cnc2c(C(=O)Nc3cnccc3N3CCN(C)CC3)c(N)nn2c1 (centres unmarked) [I-N-78, 2-amino-6-(1-cyanoethyl)-N-(4-(4-methylpiperazin-1-yl)pyridin-3-yl)pyrazolo[1,5-a]pyrimidine-3-carboxamide]	10 to 1000
N#CCc1cnc2c(C(=O)Nc3cnccc3N3CCOCC3)c(N)nn2c1 [I-N-81, 2-amino-6-(cyanomethyl)-N-(4-morpholinopyridin-3-yl)pyrazolo[1,5-a]pyrimidine-3-carboxamide]	10 to 1000
Cc1nnc(C2CCN(c3ccncc3NC(=O)c3c(N)nn4cc(F)cnc34)CC2)o1 [I-N-265, 2-amino-6-fluoro-N-(4-(4-(5-methyl-1,3,4-oxadiazol-2-yl)piperidin-1-yl)pyridin-3-yl)pyrazolo[1,5-a]pyrimidine-3-carboxamide]	10 to 1000
COC1CN(C(=O)C2CCN(c3ccncc3NC(=O)c3c(N)nn4cc(F)cnc34)CC2)C1 [I-G-78, 2-amino-6-fluoro-N-(4-(4-(3-methoxyazetidine-1-carbonyl)piperidin-1-yl)pyridin-3-yl)pyrazolo[1,5-a]pyrimidine-3-carboxamide]	10 to 1000

The remaining lines, values ahead:

Ki [nM]	Compound
10 to 1000	CN1CCC(NC(=O)C2CCN(c3c(F)cncc3NC(=O)c3c(N)nn4cc(F)cnc34)CC2)C1 (centres unmarked) [I-G-24, 2-amino-6-fluoro-N-(5-fluoro-4-(4-((1-methylpyrrolidin-3-yl)carbamoyl)piperidin-1-yl)pyridin-3-yl)pyrazolo[1,5-a]pyrimidine-3-carboxamide]
10 to 1000	Nc1nn2cc(F)cnc2c1C(=O)Nc1cnccc1-c1ccc(C(=O)N2CCN(C3COC3)CC2)cc1F [I-C-51, 2-amino-6-fluoro-N-(4-(2-fluoro-4-(4-(oxetan-3-yl)piperazine-1-carbonyl)phenyl)pyridin-3-yl)pyrazolo[1,5-a]pyrimidine-3-carboxamide]
10 to 1000	Nc1nn2cc(F)cnc2c1C(=O)Nc1cnccc1-c1ccc(C(=O)N2CCC(N3CCC3)CC2)nc1 [I-C-54, 2-amino-N-(6-(4-(azetidin-1-yl)piperidine-1-carbonyl)-[3,4′-bipyridin]-3′-yl)-6-fluoropyrazolo[1,5-a]pyrimidine-3-carboxamide]
10 to 1000	Nc1nn2cc(F)cnc2c1C(=O)Nc1cncc(F)c1N1CCN(CC(=O)N2CCC2)CC1 [I-N-228, 2-amino-N-(4-(4-(2-(azetidin-1-yl)-2-oxoethyl)piperazin-1-yl)-5-fluoropyridin-3-yl)-6-fluoropyrazolo[1,5-a]pyrimidine-3-carboxamide]
10 to 1000	CN1CCC(C(=O)N2CC=C(c3c(F)cncc3NC(=O)c3c(N)nn4cc(F)cnc34)CC2)CC1 [I-C-38, 2-amino-6-fluoro-N-(5-fluoro-1′-(1-methylpiperidine-4-carbonyl)-1′,2′,3′,6′-tetrahydro-[4,4′-bipyridin]-3-yl)pyrazolo[1,5-a]pyrimidine-3-carboxamide]
10 to 1000	CNC1CN(C(=O)C2CCN(c3c(F)cncc3NC(=O)c3c(N)nn4cc(F)cnc34)CC2)C1 [I-G-34, 2-amino-6-fluoro-N-(5-fluoro-4-(4-(3-(methylamino)azetidine-1-carbonyl)piperidin-1-yl)pyridin-3-yl)pyrazolo[1,5-a]pyrimidine-3-carboxamide]
10 to 1000	Nc1nn2cc(F)cnc2c1C(=O)Nc1cncc(F)c1N1CCN2C(=O)CCC2C1 (centres unmarked) [I-N-163, 2-amino-6-fluoro-N-(5-fluoro-4-(6-oxohexahydropyrrolo[1,2-a]pyrazin-2(1H)-yl)pyridin-3-yl)pyrazolo[1,5-a]pyrimidine-3-carboxamide]
10 to 1000	Cn1nccc1-c1ccncc1NC(=O)c1c(N)nn2cc(F)cnc12 [I-C-57, 2-amino-6-fluoro-N-(4-(1-methyl-1H-pyrazol-5-yl)pyridin-3-yl)pyrazolo[1,5-a]pyrimidine-3-carboxamide]
10 to 1000	Nc1nn2cc(Cl)cnc2c1C(=O)Nc1cnccc1O[C@@H]1CCOC1 [I-O-54, (R)-2-amino-6-chloro-N-(4-((tetrahydrofuran-3-yl)oxy)pyridin-3-yl)pyrazolo[1,5-a]pyrimidine-3-carboxamide]
10 to 1000	Nc1nn2cc(Cl)cnc2c1C(=O)Nc1cnccc1N1CCn2ccnc2C1 [I-N-44, 2-amino-6-chloro-N-(4-(5,6-dihydroimidazo[1,2-a]pyrazin-7(8H)-yl)pyridin-3-yl)pyrazolo[1,5-a]pyrimidine-3-carboxamide]
10 to 1000	Cc1nc(N2CCN(C)CC2)ccc1-c1ccncc1NC(=O)c1c(N)nn2cc(F)cnc12 [I-C-40, 2-amino-6-fluoro-N-(2-methyl-6-(4-methylpiperazin-1-yl)-[3,4′-bipyridin]-3′-yl)pyrazolo[1,5-a]pyrimidine-3-carboxamide]
10 to 1000	CN1CCN(C(=O)[C@H]2CC[C@@H](Oc3ccncc3NC(=O)c3c(N)nn4cc(F)cnc34)CC2)CC1 [I-O-19, 2-amino-6-fluoro-N-(4-(((1s,4s)-4-(4-methylpiperazine-1-carbonyl)cyclohexyl)oxy)pyridin-3-yl)pyrazolo[1,5-a]pyrimidine-3-carboxamide]
10 to 1000	CN(C)CCOc1cc(C(F)(F)F)ncc1NC(=O)c1c(N)nn2cc(Cl)cnc12 [I-O-71, 2-amino-6-chloro-N-(4-(2-(dimethylamino)ethoxy)-6-(trifluoromethyl)pyridin-3-yl)pyrazolo[1,5-a]pyrimidine-3-carboxamide]
10 to 1000	CN1CC2CC1CN2C(=O)C1CCN(c2c(F)cncc2NC(=O)c2c(N)nn3cc(F)cnc23)CC1 (centres unmarked) [I-G-53, 2-amino-6-fluoro-N-(5-fluoro-4-(4-(5-methyl-2,5-diazabicyclo[2.2.1]heptane-2-carbonyl)piperidin-1-yl)pyridin-3-yl)pyrazolo[1,5-a]pyrimidine-3-carboxamide]
10 to 1000	CN1CCN(C(=O)C2CCN(c3c(Cl)cncc3NC(=O)c3c(N)nn4cc(F)cnc34)CC2)CC1 [I-G-3, 2-amino-N-(5-chloro-4-(4-(4-methylpiperazine-1-carbonyl)piperidin-1-yl)pyridin-3-yl)-6-fluoropyrazolo[1,5-a]pyrimidine-3-carboxamide]
10 to 1000	Cn1cncc1-c1ccncc1NC(=O)c1c(N)nn2cc(F)cnc12 [I-C-56, 2-amino-6-fluoro-N-(4-(1-methyl-1H-imidazol-5-yl)pyridin-3-yl)pyrazolo[1,5-a]pyrimidine-3-carboxamide]
10 to 1000	CN(C)CCN(C)C(=O)C1CCN(c2c(F)cncc2NC(=O)c2c(N)nn3cc(F)cnc23)CC1 [I-G-31, 2-amino-N-(4-(4-((2-(dimethylamino)ethyl)(methyl)carbamoyl)piperidin-1-yl)-5-fluoropyridin-3-yl)-6-fluoropyrazolo[1,5-a]pyrimidine-3-carboxamide]
10 to 1000	Nc1nn2cc(Cl)cnc2c1C(=O)Nc1cnccc1O[C@H]1CCCNC1 [I-O-74, (S)-2-amino-6-chloro-N-(4-(piperidin-3-yloxy)pyridin-3-yl)pyrazolo[1,5-a]pyrimidine-3-carboxamide]
< 10	N#CCc1cnc2c(C(=O)Nc3cnccc3OC3CCCOC3)c(N)nn2c1 (centres unmarked) [I-O-41, 2-amino-6-(cyanomethyl)-N-(4-((tetrahydro-2H-pyran-3-yl)oxy)pyridin-3-yl)pyrazolo[1,5-a]pyrimidine-3-carboxamide]
